Literature values in US20090053307A1, “IMMEDIATE-RELEASE T[…] FOR IMPROVED ORAL ABSORPTION OF 7-[(E)]-T-BUTY-LOXYMINOMETHYL] CAMPTOTHECIN” (SIGMA-TAU INDUSTRIE FAR[…] S.P.A., priority 2005, published 2009).

Tested on: large cell pulmonary carcinoma (not SCLC, H-460)
Conditions: H-460 tumour line; from W097/31003

SMILES: CCC1(O)C(=O)OCc2c1cc1n(c2=O)Cc2c-1nc1ccccc1c2C#N (stereo not shown) [CPT 83]
- activity compared with reference compound topotecan: more active than topotecan
